Reference: US11407756B2, “Heterocyclic compounds and noxious arthropod control agent containing same” (SUMITOMO CHEMICAL COMPANY, LIMITED, priority 2017, dated 2022)

Test system: German cockroaches (Blattella germanica)
Experiment: Test method 8: treated filter paper with sucrose, male adult German cockroaches
Type: in vivo
Details: 500 ppm, 0.7 mL on filter paper, after 6 days, 25° C.
Procedure: Next, Test Examples are used to show effects of the Present compounds X on harmful arthropods. In the following Test Examples, the tests were carried out at 25° C.
Each test compound is formulated according to the process described in the Formulation Example 5 to obtain each formulation, and water is added thereto to prepare a diluted solution containing a prescribed concentration of each test compound.
A filter paper having a diameter of 5.5 cm is lined with the inside bottom of a cup having a diameter of 5.5 cm, each of said diluted solutions (0.7 mL) is added dropwise on the filter paper, and sucrose (30 mg) is homogeneously placed into said cup as a feed. Two (2) male adult German cockroaches (Blattella germanica) are released into said cup, and the cup is covered. After 6 days, life and death of the German cockroach are examined, the number of the dead insects is counted, and the mortality of insects is calculated by the following equation. Mortality(%)=(Number of dead insects/Number of test insects)×100

CCS(=O)(=O)c1cc(OC(C)C)cnc1-n1ccc2nc(C(F)(F)F)cn2c1=O [compound 12]
mortality: 100%
